Laboratory results published in US6441030B1, “3-phenyl-pyrones” (Bayer Aktiengesellschaft, priority 1998, dated 2002).

How the values were obtained:
Type in all cases: in vivo
[1] = test system: larvae of the mustard beetle (Phaedon cochleariae); experiment: Phaedon larvae test (Example C); conditions: active compound concentration of 0.1% in the preparation; cabbage leaves (Brassica oleracea) dipped
Experimental: Phaedon Larvae Test Solvent: 7 parts by weight of dimethylformamide Emulsifier: 1 part by weight of alkylaryl polyglycol ether […] Cabbage leaves (Brassica oleracea) are treated by being dipped into the preparation of active compound of the desired concentration and are populated with larvae of the mustard beetle (Phaedon cochleariae) while the leaves are still moist.

Aphis fabae = experiment: Critical concentration test/root-systemic action, Aphis fabae (Example G); conditions: active compound concentration of 1.25 ppm in the soil; broad beans; populated after 7 days, evaluated after a further 7 days
Experimental: (§1) Critical Concentration Test/Root-systemic Action Test insect: Aphis fabae Solvent: 4 parts by weight of dimethylformamide Emulsifier: 1 part by weight of alkylaryl polyglycol ether To prepare a suitable preparation of active compound, 1 part by weight of active compound is mixed with the stated amount of solvent, the stated amount of emulsifier is added and the concentrate is diluted with water to the desired concentration. The preparation of active compound is mixed intimately with the soil. The concentration of the active compound in the preparation is virtually immaterial, only the amount by weight of active compound per volume unit of soil, which is stated in ppm (=mg/l), being decisive. The treated soil is filled into 250 ml pots and pre-germinated broad beans are planted in these. Thus, the active compound can be taken up by the plant roots from the soil and then transported into the leaves. To assess the root-systemic effect, the leaves are populated with the abovementioned test animals after 7 days. After a further 7 days, evaluation is carried out by counting or estimating the dead animals. The root-systemic action of the active compound is derived from the number of animals killed. It is 100% if all test animals have been killed and 0% when the number of test insects that are still alive is the same as for the untreated control.

Myzus persicae = experiment: Critical concentration test/root-systemic action, Myzus persicae (Example H); conditions: active compound concentration of 1.25 ppm in the soil; broad beans; populated after 7 days, evaluated after a further 7 days
Experimental: as §1, with “Myzus persicae” for “Aphis fabae”, “[…],” for “(=mg/l),”

Cc1cc(Cl)ccc1-c1c(O)c(C)c(-c2ccccn2)oc1=O [Example 1, 3-(2-methyl-4-chloro-phenyl)-4-hydroxy-5-methyl-6-(pyrid-2-yl)-pyrone]
100 per cent: efficacy (kill in %) [1] | efficacy (root-systemic action) (Aphis fabae) | efficacy (root-systemic action) (Myzus persicae)
